The values below come from patent publication US6756509B2, “Method for purifying crude 2,6-naphthalenedicarboxylic acid” (Kobe Steel, Ltd., priority 2001, dated 2004).

Data set [1] is described as follows: solubility in water at room temperature. Format: physicochemical. On the procedure:
Preferably, the reduction reaction is performed at a temperature in the range of 280 to 350° C. […] In addition, in order to maintain the liquid phase at a high temperature in the range described above, the pressure must be the saturated vapor pressure or higher (150 to 250 atm). Fortunately, using hydrogen dissolved in water prevents the equipment from deteriorating. Specifically, if hydrogen gas is supplied to a water medium containing 2,6-NDA, the hydrogen gas is used at such a high temperature and high pressure, consequently making the reactor brittle. In order to prevent the embrittlement, pressure-resistant equipment, which is expensive, is required.

Data set [2] in a line: solubility in alcohol at room temperature.

`O=C(O)c1ccc2cc(C(=O)O)ccc2c1` [2,6-NDA, 2,6-naphthalenedicarboxylic acid]: the “solubility in water” value in data set [1] was “slightly soluble or insoluble”. The “solubility in alcohols” value in data set [2] (any alcohols) is “hardly dissolves”. On to `O=C(O)c1ccc2ccccc2c1` [2-NA, 2-naphthoic acid], for which the “amount that dissolves in ethanol” value in data set [2] (ethanol) is given as 10 mass %.
